Test results from patent US11957669B2, “Pharmaceutical composition containing (R)-N-[1-(3,5-difluoro-4-methansulfonylamino-phenyl)-ethyl]-3-(2-propyl-6-trifluoromethyl-pyridin-3-yl)-acrylamide” (AMOREPACIFIC CORPORATION, priority 2017, dated 2024).

Assays:
[1] = Solubility of the compound of Formula (1) in various solvents (excess compound, shaking, HPLC); assay type: physicochemical; conditions: for solubility at 24 h: thermodynamic from solid
Experimental: An excess amount of the compound of Formula (1) was added to 1 mL of each solvent described in Table 1 below and stirred for 24 hours at 25° C. while shaking at 200 rpm (Shaking incubator, SI 600R, JEIO TECH, Korea). Thereafter, a centrifugation was performed at 10,000 rpm for 10 minutes, and the supernatant was filtered using a membrane filter (0.2 μm), then diluted moderately with methanol and analyzed by HPLC.

[2] = as above; assay type: physicochemical

CCCc1nc(C(F)(F)F)ccc1/C=C/C(=O)N[C@H](C)c1cc(F)c(NS(C)(=O)=O)c(F)c1 [compound of Formula (1), (R)—N-[1-(3,5-difluoro-4-methanesulfonylamino-phenyl)-ethyl]-3-(2-propyl-6-trifluoromethyl-pyridin-3-yl)-acrylamide]
solubility at 24 h ([1]; 25 °C, organic solvent or mixture, in dimethyl sulfoxide, diethylene glycol monoethyl ether, 2-pyrrolidone and polyethylene glycol (summary of Table 1)): ≥ 100 mg/mL
solubility at 24 h ([1]; oil or lipid, in Cocoyl caprylocaprate, 25° C., 24 hours): 0.46 mg/mL
solubility at 24 h ([1]; oil or lipid, in Corn oil, 25° C., 24 hours): 1.8 mg/mL
solubility at 24 h ([1]; oil or lipid, in Ethyl oleate, 25° C., 24 hours): 1 mg/mL
solubility at 24 h ([1]; oil or lipid, in Isopropyl myristate, 25° C., 24 hours): 1.18 mg/mL
solubility at 24 h ([1]; oil or lipid, in Miglyol, 25° C., 24 hours): 1.4 mg/mL
solubility at 24 h ([1]; oil or lipid, in Octyldodecanol, 25° C., 24 hours): 1.77 mg/mL
solubility at 24 h ([1]; oil or lipid, in Oleic acid, 25° C., 24 hours): 0.43 mg/mL
solubility at 24 h ([1]; oil or lipid, in Oleyl Alcohol, 25° C., 24 hours): 6.32 mg/mL
solubility at 24 h ([1]; oil or lipid, in Propylene glycol monocaprylate, 25° C., 24 hours): 75 mg/mL
solubility at 24 h ([1]; oil or lipid, in Propylene glycol monolaurate, 25° C., 24 hours): 7.75 mg/mL
solubility at 24 h ([1]; oil or lipid, in Triglycerides, Medium chain, 25° C., 24 hours): 1.9 mg/mL
solubility at 24 h ([1]; organic solvent or mixture, in 2-Pyrrolidinone, 25° C., 24 hours): 212 mg/mL
solubility at 24 h ([1]; organic solvent or mixture, in Acetonitrile, 25° C., 24 hours): 108 mg/mL
solubility at 24 h ([1]; organic solvent or mixture, in Caprylocaproyl polyoxyl-8 glycerides, 25° C., 24 hours): 46.7 mg/mL
solubility at 24 h ([1]; organic solvent or mixture, in Diethylene glycol monoethyl ether, 25° C., 24 hours): 289 mg/mL
solubility at 24 h ([1]; organic solvent or mixture, in Dimethyl sulfoxide, 25° C., 24 hours): 632 mg/mL
solubility at 24 h ([1]; organic solvent or mixture, in Dimethylacetamide, 25° C., 24 hours): 80 mg/mL
solubility at 24 h ([1]; organic solvent or mixture, in Ethanol, 25° C., 24 hours): 75.3 mg/mL
solubility at 24 h ([1]; organic solvent or mixture, in Glycerol, 25° C., 24 hours): 0.84 mg/mL
solubility at 24 h ([1]; organic solvent or mixture, in Lauroyl macrogol-32 glycerides, 25° C., 24 hours): 24.1 mg/mL
solubility at 24 h ([1]; organic solvent or mixture, in Methanol, 25° C., 24 hours): 178 mg/mL
solubility at 24 h ([1]; organic solvent or mixture, in Oleoyl polyoxyl-6 glycerides, 25° C., 24 hours): 4.36 mg/mL
solubility at 24 h ([1]; organic solvent or mixture, in Poloxamer 124, 25° C., 24 hours): 66.7 mg/mL
solubility at 24 h ([1]; organic solvent or mixture, in Polyethylene glycol(PEG) 300, 25° C., 24 hours): 146 mg/mL
solubility at 24 h ([1]; organic solvent or mixture, in Polyethylene glycol(PEG) 400, 25° C., 24 hours): 168 mg/mL
solubility at 24 h ([1]; organic solvent or mixture, in Polyethylene glycol-35 castor oil, 25° C., 24 hours): 2.7 mg/mL
solubility at 24 h ([1]; organic solvent or mixture, in Polyoxyl 40 hydrogenated castor oil, 25° C., 24 hours): 36 mg/mL
solubility at 24 h ([1]; organic solvent or mixture, in Polysorbate 20, 25° C., 24 hours): 48 mg/mL
solubility at 24 h ([1]; organic solvent or mixture, in Polysorbate 40, 25° C., 24 hours): 37 mg/mL
solubility at 24 h ([1]; organic solvent or mixture, in Polysorbate 60, 25° C., 24 hours): 35 mg/mL
solubility at 24 h ([1]; organic solvent or mixture, in Polysorbate 80, 25° C., 24 hours): 11.8 mg/mL
solubility at 24 h ([1]; organic solvent or mixture, in Propylene glycol, 25° C., 24 hours): 25 mg/mL
solubility at 24 h ([1]; organic solvent or mixture, in Triacetin, 25° C., 24 hours): 56.5 mg/mL
solubility at 24 h ([1]; in Purified water, 25° C., 24 hours): 0.05 mg/mL
solubility ([1]; water, background statement): < 0.1 mg/mL
solubility ([2]; aqueous with cosolvent or surfactant or cyclodextrin, in a 10% (w/w) aqueous solution of PEG 400): ~0.08 mg/mL
solubility in oil ([2]; oil, background statement): significantly low solubility in oil
